# Tests used:
# [1] = tested on: α-Glucosidase Derived from NBRC4239 Strain; experiment: Substrate specificity of the enzyme; format: biochemical, Aspergillus sojae; conditions: 40°C, pH 6.0; for Relative Activity* (%): substrate 10mM, relative to decomposition rate of 10 mM maltose
# Method: The substrate specificity of the present enzyme was evaluated at the conditions of 40°C and pH 6.0.
# [2] = tested on: α-Glucosidase Derived from NBRC4239 Strain; experiment: Effect of metal ion on the enzyme activity; format: biochemical, Aspergillus sojae
# Method: The hydrolytic activity using maltose as the substrate was measured as shown below. A 20 mM maltose (50µL) dissolved in the 20mM MES buffer (pH 6.0) and an enzyme solution diluted by the buffer are mixed and incubated at 40°C for 30 min., then, 1 µL of 10% oxalic acid solution was added and heated at 100°C for 10 min. to stop the reaction. The amount of liberated glucose in the reaction solution was measured by Glucose CII Test Wako (produced by Wako Pure Chemical Industries, Ltd.). One unit of α-glucosidase activity was defined as the amount of enzyme that catalyzes hydrolysis of 1 µmol of maltose per minute. The effect of various metal ions on the present enzyme was studied. The enzyme activity was analyzed according to <Analysis Method of α-Glucosidase Activity>.
Compound,hydrolytic activity toward substrate (in words) [1],Relative Activity* (%) [1] [%],"Specific Activity (%) ([2]; Concentration 5 mM added to reaction mixture, no addition = 100)",effect on the enzyme activity (in words) ([2]; addition of ions to the reaction mixture)
OC[C@H]1O[C@H](O[C@H]2[C@H](O)[C@@H](O)C(O)O[C@@H]2CO)[C@H](O)[C@@H](O)[C@@H]1O (mixture of isomers) [maltose],well hydrolytic activities,100,–,–
O=C(O)CN(CCN(CC(=O)O)CC(=O)O)CC(=O)O [EDTA],–,–,85,inhibited the activity somewhat
OC[C@H]1O[C@H](OC[C@H]2OC(O)[C@H](O)[C@@H](O)[C@@H]2O)[C@H](O)[C@@H](O)[C@@H]1O (stereo partly drawn) [isomaltose],well hydrolytic activities,163,–,–
OC[C@H]1O[C@H](OC[C@H]2O[C@H](OC[C@H]3O[C@H](OC[C@H]4OC(O)[C@H](O)[C@@H](O)[C@@H]4O)[C@H](O)[C@@H](O)[C@@H]3O)[C@H](O)[C@@H](O)[C@@H]2O)[C@H](O)[C@@H](O)[C@@H]1O (stereo partly drawn) [isomaltotetraose],–,168,–,–
OC[C@H]1O[C@H](OC[C@H]2O[C@H](OC[C@H]3OC(O)[C@H](O)[C@@H](O)[C@@H]3O)[C@H](O)[C@@H](O)[C@@H]2O)[C@H](O)[C@@H](O)[C@@H]1O (stereo partly drawn) [isomaltotriose],–,161,–,–
OC[C@H]1O[C@H](O[C@H]2[C@H](O)[C@@H](O)[C@@H](O[C@H]3[C@H](O)[C@@H](O)[C@@H](O[C@H]4[C@H](O)[C@@H](O)[C@@H](O[C@H]5[C@H](O)[C@@H](O)[C@@H](O[C@H]6[C@H](O)[C@@H](O)[C@@H](O[C@H]7[C@H](O)[C@@H](O)C(O)O[C@@H]7CO)O[C@@H]6CO)O[C@@H]5CO)O[C@@H]4CO)O[C@@H]3CO)O[C@@H]2CO)[C@H](O)[C@@H](O)[C@@H]1O (stereo partly drawn) [maltoheptaose],–,57,–,–
OC[C@H]1O[C@H](O[C@H]2[C@H](O)[C@@H](O)[C@@H](O[C@H]3[C@H](O)[C@@H](O)[C@@H](O[C@H]4[C@H](O)[C@@H](O)[C@@H](O[C@H]5[C@H](O)[C@@H](O)[C@@H](O[C@H]6[C@H](O)[C@@H](O)C(O)O[C@@H]6CO)O[C@@H]5CO)O[C@@H]4CO)O[C@@H]3CO)O[C@@H]2CO)[C@H](O)[C@@H](O)[C@@H]1O (stereo partly drawn) [maltohexaose],–,49,–,–
OC[C@H]1O[C@H](O[C@H]2[C@H](O)[C@@H](O)[C@@H](O[C@H]3[C@H](O)[C@@H](O)[C@@H](O[C@H]4[C@H](O)[C@@H](O)[C@@H](O[C@H]5[C@H](O)[C@@H](O)C(O)O[C@@H]5CO)O[C@@H]4CO)O[C@@H]3CO)O[C@@H]2CO)[C@H](O)[C@@H](O)[C@@H]1O (stereo partly drawn) [maltopentaose],–,41,–,–
OC[C@H]1O[C@H](O[C@H]2[C@H](O)[C@@H](O)[C@@H](O[C@H]3[C@H](O)[C@@H](O)[C@@H](O[C@H]4[C@H](O)[C@@H](O)C(O)O[C@@H]4CO)O[C@@H]3CO)O[C@@H]2CO)[C@H](O)[C@@H](O)[C@@H]1O (stereo partly drawn) [maltotetraose],a little low,16,–,–
OC[C@H]1O[C@H](O[C@H]2[C@H](O)[C@@H](O)[C@@H](O[C@H]3[C@H](O)[C@@H](O)C(O)O[C@@H]3CO)O[C@@H]2CO)[C@H](O)[C@@H](O)[C@@H]1O (stereo partly drawn) [maltotriose],–,45,–,–
OC[C@H]1O[C@H](O[C@H]2[C@H](O)[C@@H](CO)OC(O)[C@@H]2O)[C@H](O)[C@@H](O)[C@@H]1O (stereo partly drawn) [nigerose],well hydrolytic activities,153,–,–
OC[C@H]1O[C@H](OC[C@H]2O[C@H](O[C@H]3[C@H](O)[C@@H](O)C(O)O[C@@H]3CO)[C@H](O)[C@@H](O)[C@@H]2O)[C@H](O)[C@@H](O)[C@@H]1O (stereo partly drawn) [panose],–,153,–,–
OC[C@H]1O[C@H](O[C@H]2O[C@H](CO)[C@@H](O)[C@H](O)[C@H]2O)[C@H](O)[C@@H](O)[C@@H]1O [trehalose],very slight,1,–,–
OC[C@H]1O[C@@H]2O[C@H]3[C@H](O)[C@@H](O)[C@@H](O[C@H]4[C@H](O)[C@@H](O)[C@@H](O[C@H]5[C@H](O)[C@@H](O)[C@@H](O[C@H]6[C@H](O)[C@@H](O)[C@@H](O[C@H]7[C@H](O)[C@@H](O)[C@@H](O[C@H]1[C@H](O)[C@H]2O)O[C@@H]7CO)O[C@@H]6CO)O[C@@H]5CO)O[C@@H]4CO)O[C@@H]3CO [α-cyclodextrine],well hydrolytic activities,58,–,–
OC[C@H]1O[C@@H]2O[C@H]3[C@H](O)[C@@H](O)[C@@H](O[C@H]4[C@H](O)[C@@H](O)[C@@H](O[C@H]5[C@H](O)[C@@H](O)[C@@H](O[C@H]6[C@H](O)[C@@H](O)[C@@H](O[C@H]7[C@H](O)[C@@H](O)[C@@H](O[C@H]8[C@H](O)[C@@H](O)[C@@H](O[C@H]1[C@H](O)[C@H]2O)O[C@@H]8CO)O[C@@H]7CO)O[C@@H]6CO)O[C@@H]5CO)O[C@@H]4CO)O[C@@H]3CO [β-cyclodextrine],well hydrolytic activities,48,–,–
OC[C@H]1O[C@@H]2O[C@H]3[C@H](O)[C@@H](O)[C@@H](O[C@H]4[C@H](O)[C@@H](O)[C@@H](O[C@H]5[C@H](O)[C@@H](O)[C@@H](O[C@H]6[C@H](O)[C@@H](O)[C@@H](O[C@H]7[C@H](O)[C@@H](O)[C@@H](O[C@H]8[C@H](O)[C@@H](O)[C@@H](O[C@H]9[C@H](O)[C@@H](O)[C@@H](O[C@H]1[C@H](O)[C@H]2O)O[C@@H]9CO)O[C@@H]8CO)O[C@@H]7CO)O[C@@H]6CO)O[C@@H]5CO)O[C@@H]4CO)O[C@@H]3CO [γ-cyclodextrine],a little low,14,–,–
kojibiose,well hydrolytic activities,91,–,–

# Reference: patent EP3211076A1, “NOVEL ALPHA-GLUCOSIDASE” (Showa Sangyo Co., Ltd., priority 2014, dated 2016)
